According to ChEMBL document CHEMBL5247598 (Eur J Med Chem, 2022):
Activity calls are given as the source filed them. The rule behind the calls is not given here.

Legend:
[1] = Cytotoxicity against human HEK293T cells assessed as reduction in cell viability incubated for 48 hrs by MTT assay; type: toxicity, cell-based, HEK-293T
[2] = test system: P-gp; assay: Therapeutic index, ratio of IC50 for cytotoxicity against human HEK293T cells to EC50 for reversal of P-gp-mediated multidrug resistance in human NCI-ADR-RES cells; type: toxicity, cell-based; conditions: read-out: Ratio IC50/EC50
[3] = test system: NCI/ADR-RES; assay: Reversal of P-gp-mediated multidrug resistance in human NCI-ADR-RES cells assessed as potentiation of doxorubicin-induced cytotoxicity incubated for 48 hrs by MTT assay; type: functional, cell-based
[4] = test system: HCT-8; assay: Antiproliferative activity against human HCT-8 cells assessed as inhibition of cell growth at 50 uM incubated for 48 hrs by MTT assay; type: functional, cell-based
[5] = Cytotoxicity against mouse MPC-5 cells assessed as inhibition of cell growth at 50 uM incubated for 48 hrs by MTT assay; type: toxicity, cell-based; conditions: mpc-5, 48 h
[6] = test system: L02; assay: Cytotoxicity against human L02 cells assessed as inhibition of cell growth at 50 uM incubated for 48 hrs by MTT assay; type: toxicity, cell-based; conditions: l02, 48 h
[7] = test system: A549/TR; assay: Antiproliferative activity against human Taxol resistant A549 cells assessed as inhibition of cell growth at 50 uM incubated for 48 hrs by MTT assay; type: functional, cell-based
[8] = test system: NCI/ADR-RES; assay: Antiproliferative activity against human multidrug resistant NCI-ADR-RES cells overexpressing P-gp assessed as reduction in cell viability incubated for 48 hrs by MTT assay; type: functional, cell-based
[9] = test system: MCF7; assay: Antiproliferative activity against human MCF7 cells assessed as inhibition of cell growth at 50 uM incubated for 48 hrs by MTT assay; type: functional, cell-based
[10] = test system: HEK-293T; assay: Cytotoxicity against human HEK293T cells assessed as inhibition of cell growth at 50 uM incubated for 48 hrs by MTT assay; type: toxicity, cell-based
[11] = test system: HEK-293T; assay: Cytotoxicity against human HEK293T cells assessed as cell survival rate at 10 uM incubated for 48 hrs by MTT assay; type: toxicity, cell-based
[12] = test system: HCT-8; assay: Antiproliferative activity against human Taxol resistant HCT-8 cells assessed as inhibition of cell growth at 50 uM incubated for 48 hrs by MTT assay; type: functional, cell-based
[13] = test system: NCI/ADR-RES; assay: Reversal fold, ratio of doxorubicin IC50 to doxorubicin IC50 in presence of 10 uM test compound for reversal of P-gp-mediated multidrug resistance in human NCI-ADR-RES cells incubated for 48 hrs by MTT assay; type: functional
[14] = test system: NCI/ADR-RES; assay: Antiproliferative activity against human multidrug resistant NCI-ADR-RES cells assessed as inhibition of cell growth at 50 uM incubated for 48 hrs by MTT assay; type: functional, cell-based
[15] = test system: MCF7; assay: Antiproliferative activity against human MCF7 cells assessed as reduction in cell viability incubated for 48 hrs by MTT assay; type: functional, cell-based; conditions: MCF7, 48 h
[16] = test system: A549; assay: Antiproliferative activity against human A549 cells assessed as inhibition of cell growth at 50 uM incubated for 48 hrs by MTT assay; type: functional, cell-based
[17] = test system: NCI-ADR-RES; assay: Activation of PI3K/AKT signaling pathway in human NCI-ADR-RES cells assessed as increase in AKT phosphorylation at 3 uM incubated for 24 to 48 hrs by Western blot analysis; type: cell-based; conditions: filed as activator, time 24-48 hrs
[18] = test system: NCI/ADR-RES; assay: Induction of apoptosis in human NCI-ADR-RES cells assessed as viable cells at 8 uM incubated for 48 hrs by Annexin V-FITC and DAPI staining based flow cytometry (Rvb= 97.9 %); type: functional; conditions: read-out: Activity
[19] = test system: NCI/ADR-RES; assay: Induction of apoptosis in human NCI-ADR-RES cells assessed as early apoptotic cells at 8 uM incubated for 48 hrs by Annexin V-FITC and DAPI staining based flow cytometry (Rvb= 0.89 %); type: functional
[20] = test system: NCI-ADR-RES; assay: Activation of PI3K/AKT signaling pathway in human NCI-ADR-RES cells assessed as increase in PI3K phosphorylation at 3 uM incubated for 24 to 48 hrs by Western blot analysis; type: cell-based; conditions: filed as activator, time 24-48 hrs
[21] = test system: NCI/ADR-RES; assay: Induction of apoptosis in human NCI-ADR-RES cells assessed as late apoptotic cells at 8 uM incubated for 24 hrs by Annexin V-FITC and DAPI staining based flow cytometry (Rvb= 0.66 %); type: functional
[22] = test system: NCI/ADR-RES; assay: Induction of apoptosis in human NCI-ADR-RES cells assessed as necrotic cells at 8 uM incubated for 48 hrs by Annexin V-FITC and DAPI staining based flow cytometry (Rvb= 0.55 %); type: functional
[23] = test system: NCI/ADR-RES; assay: Induction of apoptosis in human NCI-ADR-RES cells assessed as necrotic cells at 8 uM incubated for 24 hrs by Annexin V-FITC and DAPI staining based flow cytometry (Rvb= 0.55 %); type: functional
[24] = test system: NCI/ADR-RES; assay: Induction of apoptosis in human NCI-ADR-RES cells assessed as early apoptotic cells at 8 uM incubated for 24 hrs by Annexin V-FITC and DAPI staining based flow cytometry (Rvb= 0.89 %); type: functional
[25] = test system: NCI/ADR-RES; assay: Induction of apoptosis in human NCI-ADR-RES cells assessed as late apoptotic cells at 8 uM incubated for 48 hrs by Annexin V-FITC and DAPI staining based flow cytometry (Rvb= 0.66 %); type: functional
[26] = test system: NCI/ADR-RES; assay: Induction of apoptosis in human NCI-ADR-RES cells assessed as viable cells at 8 uM incubated for 24 hrs by Annexin V-FITC and DAPI staining based flow cytometry (Rvb= 97.9 %); type: functional; conditions: read-out: Activity

| SMILES | IC50 at 48 h [1] [µM] | IC50 [8] [µM] | Ratio IC50 [13] | IC50 ([15]; read-out: IC50) [µM] | other results |
| --- | --- | --- | --- | --- | --- |
| COc1cc2c(cc1OC)CN(CCc1ccc(NC(=O)c3cc(OC)c(OC)cc3NC(=O)c3cnc4ccccc4c3)cc1)CC2 | 5.22 | 98.5 | 47.2 | 8.11 | selectivity ratio [2]: 278; EC50 [3]: 0.0187 µM; Activity [4]: Active; Activity [5]: Toxic; Activity [6]: Toxic; Activity [7]: Active; Activity [9]: Active; Activity [10]: Toxic; Activity [11]: Toxic; Activity [12]: Active; Activity [14]: Active; Activity [16]: Active |
| C=C1[C@H](OC(C)=O)[C@@H](OC(C)=O)[C@@H](OC(C)=O)C(C)(C)/C=C/[C@H](C)[C@H](OC(=O)c2ccccc2)[C@@]2(O)C[C@@](C)(O)[C@H](OC(C)=O)[C@@H]2[C@H]1OCC(C)C | 39.3 | > 100 | 4.49 | > 100 | – |
| C=C1[C@H](OCC(C)C)[C@@H](OC(C)=O)[C@@H](OC(C)=O)C(C)(C)[C@@H]2O[C@H]2[C@H](C)[C@H](OC(=O)c2ccccc2)[C@@]2(O)C[C@@](C)(OC(C)=O)[C@H](OC(C)=O)[C@@H]2[C@H]1OCC(C)C | 48.1 | > 100 | 52.31 | > 100 | – |
| C=C1[C@H](OC(C)=O)[C@@H](OC(=O)c2cccc(C)c2)[C@@H](OC(C)=O)C(C)(C)/C=C/[C@H](C)[C@H](OC(=O)c2ccccc2)[C@@]2(O)C[C@@](C)(OC(C)=O)[C@H](OC(C)=O)[C@@H]2[C@H]1OCC(C)C | 7.6 | > 100 | 30.48 | > 100 | – |
| C=C1[C@H](OC(C)=O)[C@@H](OC(=O)C(C)(C)C)[C@@H](OC(C)=O)C(C)(C)/C=C/[C@H](C)[C@H](OC(=O)c2ccccc2)[C@@]2(O)C[C@@](C)(OC(C)=O)[C@H](OC(C)=O)[C@@H]2[C@H]1OCC(C)C | 18.9 | > 100 | 33.78 | > 100 | – |
| C=C1[C@H](O)[C@@H](OC(=O)c2cccc(C)c2)[C@@H](O)C(C)(C)/C=C/[C@H](C)[C@H](OC(=O)c2ccccc2)[C@@]2(O)C[C@@](C)(O)[C@H](OC(C)=O)[C@@H]2[C@H]1OCC(C)C | 31.3 | 75.2 | 7.66 | 63.8 | – |
| COc1ccc(CCN(C)CCCC(C#N)(c2ccc(OC)c(OC)c2)C(C)C)cc1OC (stereo not drawn) | 32 | > 100 | – | – | EC50 [3]: 0.322 µM; Activity [4]: inactive; Activity [7]: inactive; Activity [9]: inactive; Activity [12]: inactive; Activity [14]: inactive; IC50 [15]: 87.8 µM; Activity [16]: inactive |
| C=C1[C@H](OC(C)=O)[C@@H](OC(C)=O)[C@@H](OC(C)=O)C(C)(C)/C=C/[C@H](C)[C@H](OC(=O)c2ccccc2)[C@@]2(O)C[C@@](C)(OC(=O)c3ccncc3)[C@H](OC(C)=O)[C@@H]2[C@H]1OCC(C)C | 19.5 | > 100 | 89.33 | > 100 | – |
| C=C1[C@H](OC(C)=O)[C@@H](OC(=O)C(C)(C)C)[C@@H](OC(C)=O)C(C)(C)/C=C/[C@H](C)[C@H](OC(=O)c2ccccc2)[C@@]2(O)C[C@@](C)(O)[C@H](OC(C)=O)[C@@H]2[C@H]1OCC(C)C | 52.1 | > 100 | 47.77 | > 100 | – |
| C=C1[C@H](OC(C)=O)[C@@H](OC(=O)c2cccc(C)c2)[C@@H](OC(C)=O)C(C)(C)/C=C/[C@H](C)[C@H](OC(=O)c2ccccc2)[C@@]2(O)C[C@@](C)(O)[C@H](OC(C)=O)[C@@H]2[C@H]1OCC(C)C | 4.11 | > 100 | 59.71 | 23.4 | – |
| COc1cccc2c1C(=O)c1c(O)c3c(c(O)c1C2=O)C[C@@](O)(C(=O)CO)C[C@@H]3O[C@H]1C[C@H](N)[C@H](O)[C@H](C)O1 [DOXORUBICIN] | – | 58.5 | – | – | Activity [17]: Active; viability at 8 µM [18]: 92.8%; Activity [19]: 1.78%; Activity [20]: Active; Activity [21]: 0.74%; Activity [22]: 1.47%; Activity [23]: 0.39%; Activity [24]: 0.64%; Activity [25]: 4.03%; viability at 8 µM [26]: 98.3% |
| C=C1[C@H](OC(C)=O)[C@@H](OC(=O)c2cccc(C)c2)[C@@H](OC(C)=O)C(C)(C)/C=C/[C@H](C)[C@H]2O[C@]3(C)C[C@@]2(OC(=O)c2ccccc2)[C@H]([C@H]3OC(C)=O)[C@H]1OCC(C)C | > 100 | > 100 | 8.9 | > 100 | – |
